From US20050136444A1 (priority 2003, published 2005)
Structures can show the parent of a compound that is named as a salt.

What was measured:
NPFF2 = target: T1, NPFF2 (Homo sapiens, UniProt Q9Y5X5); assay: Receptor Selection and Amplification Technology (R-SAT) functional assay, NPFF2; format: cell-based; conditions: R-SAT, Table 1; for Emax: Efficacy is relative to endogenous ligand, read-out: NPFF2 % Efficacy; for EC50: NA = No activity detectable at the highest dose tested (20 μM), read-out: NPFF2 pEC50 (converted)
T1 construct: expressed in transfected cells; host or cells: NIH3T3
Experimental: (§1) Briefly, NIH3T3 cells were grown in 96 well tissue culture plates to 70-80% confluence. Cells were transfected for 16-20 h h with plasmid DNAs using Polyfect (Qiagen Inc.) as per manufacturer's protocols. R-SAT's were generally performed with 40 ng/well of receptor and 20 ng/well of β-galactosidase plasmid DNA. All receptor and G-protein constructs used were in the pSI-derived mammalian expression vector (Promega Inc) as described previously. […] For large-scale transfections, cells were transfected for 16-20 h, then trypsinized and frozen in DMSO. Frozen cells were later thawed, plated at ˜20,000 cells per well of a 96 half-area well plate that contained drug. With both methods, cells were then grown in a humidified atmosphere with 5% ambient CO2 for five days. Media was then removed from the plates and marker gene activity was measured by the addition of the β-galactosidase substrate o-nitrophenyl β-D-galactopyranoside (ONPG, in PBS with 0.5% NP-40). The resulting colorimetric reaction was measured in a spectrophotometric plate reader (Titertek Inc.) at 420 nm. All data were analyzed using the computer program XLFit (IDBSm).
(§2) R-SAT assay was conducted as set forth in […]

NPFF1 = NPFF1 (Homo sapiens, UniProt Q9GZQ6); assay: Receptor Selection and Amplification Technology (R-SAT) functional assay, NPFF1; format: cell-based; set-up: expressed in transfected cells; host or cells: NIH3T3; conditions: R-SAT, Table 1; for Emax: Efficacy is relative to endogenous ligand, read-out: NPFF1 % Efficacy; for EC50: NA = No activity detectable at the highest dose tested (20 μM), read-out: NPFF1 pEC50 (converted)
Experimental: as §1, §2

Chain of NPFF1 (Q9GZQ6 whole entry, species assumed): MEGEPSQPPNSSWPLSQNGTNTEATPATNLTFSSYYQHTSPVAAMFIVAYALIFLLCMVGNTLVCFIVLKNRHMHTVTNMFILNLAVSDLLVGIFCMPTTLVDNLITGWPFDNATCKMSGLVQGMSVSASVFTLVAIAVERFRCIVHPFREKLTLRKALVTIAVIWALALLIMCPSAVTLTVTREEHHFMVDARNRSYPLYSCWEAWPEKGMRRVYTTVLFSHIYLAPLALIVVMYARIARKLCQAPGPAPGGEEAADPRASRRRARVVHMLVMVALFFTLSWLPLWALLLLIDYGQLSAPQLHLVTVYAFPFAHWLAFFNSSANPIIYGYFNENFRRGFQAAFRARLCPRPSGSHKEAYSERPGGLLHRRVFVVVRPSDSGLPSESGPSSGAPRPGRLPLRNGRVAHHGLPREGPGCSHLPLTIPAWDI
T1 sequence (Q9Y5X5 103-522): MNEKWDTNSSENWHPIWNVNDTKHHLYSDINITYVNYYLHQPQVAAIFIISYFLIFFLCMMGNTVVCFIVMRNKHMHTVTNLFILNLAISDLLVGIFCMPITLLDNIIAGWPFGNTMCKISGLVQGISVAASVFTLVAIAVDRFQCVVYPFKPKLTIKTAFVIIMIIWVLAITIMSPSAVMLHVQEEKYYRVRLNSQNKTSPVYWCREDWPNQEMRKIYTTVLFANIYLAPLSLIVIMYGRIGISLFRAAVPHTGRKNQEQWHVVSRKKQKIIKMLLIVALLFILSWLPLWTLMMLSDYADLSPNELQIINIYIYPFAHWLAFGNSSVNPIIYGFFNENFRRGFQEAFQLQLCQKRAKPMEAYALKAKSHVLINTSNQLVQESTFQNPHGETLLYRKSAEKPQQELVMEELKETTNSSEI

Emax (NPFF2) [%] | EC50 (NPFF2) [µM] | Emax (NPFF1) [%] | EC50 (NPFF1) [µM] | Structure (SMILES)
59 | 7.94 | 3 |  | COc1ccc(OC)c(C=NNC(=N)N)c1 [Compound 3005, 1-(2,5-Dimethoxybenzylideneamino)guanidine Hydrochloride]
49 | 5.01 | 89 | 10 | CCOc1ccc(C=NNC(=N)N)cc1 [Compound 4005, 1-(4-Ethoxybenzylideneamino)guanidine Hydrochloride]
47 | 0.794 | 14 |  | COc1cccc(C=NNC(=N)N)c1OCc1ccccc1 [Compound 3006, 1-(2-Benzyloxy-3-methoxybenzylideneamino)guanidine Hydrochloride]
74 | 1.58 | 16 |  | CC(=NNC(=N)N)c1ccc(Br)cc1 [Compound 3016, 1-[1-(4-Bromophenyl)ethylideneamino]guanidine Hydrochloride]
46 | 0.501 | 43 | 0.398 | CC(=NNC(=N)N)c1ccc(N2CCCCC2)cc1 [Compound 3039, 1-[1-(4-Piperidin-1-yl-phenyl)ethylideneamino]guanidine Hydrochloride]
41 | 6.31 | 41 | 12.6 | COc1ccc(C=NNC(=N)N)c(OC)c1 [Compound 4003, 1-(2,4-Dimethoxybenzylideneamino)guanidine Hydrochloride]
115 | 1.26 | 41 | 3.98 | CCc1ccc(C(C)=NNC(=N)N)cc1 [Compound 3020, 1-[1-(4-Ethylphenyl)ethylideneamino]guanidine Hydrochloride]
82 | 0.631 | 84 | 1.26 | CCN(CCO)c1ccc(C=NNC(=N)N)c(C)c1 [Compound 3036, 1-{4-[Ethyl-(2-hydroxyethyl)amino]-2-methylbenzylideneamino}guanidine Hydrochloride]
70 | 2.51 | 32 | 10 | CC(=NNC(=N)N)c1ccc(C)c(C)c1 [Compound 3021, 1-[1-(3,4-Dimethylphenyl)ethylideneamino]guanidine Hydrochloride]
101 | 2 | 28 | 3.16 | CCc1ccc(C=NNC(=N)N)cc1 [Compound 3025, 1-(4-Ethylbenzylideneamino)guanidine Hydrochloride]
86 | 2.51 | 12 |  | Cc1ccc(C=NNC(=N)N)cc1C [Compound 3019, 1-(3,4-Dimethylbenzylideneamino)guanidine Hydrochloride]
69 | 2 | 81 | 3.16 | CCCCC(=NNC(=N)N)c1ccc(N(C)C)cc1 (mixture of isomers) [Compound 3035, 1-[1-(4-Dimethylaminophenyl)pentylideneamino]guanidine]
99 | 0.398 | 41 | 1 | CC(=NNC(=N)N)c1ccc2c(c1)CCCC2 [Compound 3024, 1-[1-(5,6,7,8-Tetrahydronaphthalen-2-yl)ethylideneamino]guanidine Hydrochloride]
78 | 3.98 | 36 | 12.6 | CC(=NNC(=N)N)c1ccc2c(c1)OCO2 [Compound 3032, 1-[1-(Benzo[1,3]dioxol-5-yl)ethylideneamino]guanidine Hydrochloride]
22 | 6.31 | 7 |  | COc1ccc(C(C)=NNC(=N)N)c(O)c1 (mixture of isomers) [Compound 3030, 1-[1-(2-Hydroxy-4-methoxyphenyl)ethylideneamino]guanidine Hydrochloride]
53 | 10 | 30 | 10 | CN(CCO)c1ccc(C=NNC(=N)N)cc1 [Compound 3041, 1-{4-[Methyl-(2-hydroxyethyl)amino]benzylideneamino}guanidine Hydrochloride]
23 | 1.26 | 9 |  | CC(=NNC(=N)N)c1cc(C(F)(F)F)cc(C(F)(F)F)c1 [Compound 3028, 1-{1-[3,5-Bis-(trifluoromethyl)phenyl]ethylideneamino}guanidine Hydrochloride]
63 | 0.251 | 0 |  | CC(=NNC(=N)N)c1ccc(Cl)c(Cl)c1 [Compound 3012, 1-[1-(3,4-Dichlorophenyl)ethylideneamino]guanidine Hydrochloride]

Second part, the molecule before the results:

Structure (SMILES) | Emax (NPFF2) [%] | EC50 (NPFF2) [µM] | Emax (NPFF1) [%] | EC50 (NPFF1) [µM]
COc1ccc(C=NNC(=N)N)cc1F [Compound 2009, 1-(3-Fluoro-4-methoxybenzylideneamino)guanidine Hydrochloride] | 54 | 7.94 | 9 | 
CCOc1ccc(C=NNC(=N)N)cc1OCC [Compound 2026, 1-(3,4-Diethoxybenzylideneamino)guanidine] | 58 | 7.94 | 9 | 
CC(=NNC(=N)N)c1ccc2c(c1)OCCO2 [Compound 2040, 1-[1-(2,3-Dihydro-benzo[1,4]dioxin-6-yl)ethylideneamino]guanidine Hydrochloride] | 65 | 7.94 | 18 | 
NC(N)=NN=Cc1ccc(Cl)c(C(F)(F)F)c1 [Compound 2035, 1-[4-Chloro-3-(trifluoromethyl)benzylideneamino]guanidine Hydrochloride] | 114 |  | 45 | 3.98
N=C(N)NN=Cc1cc(C(F)(F)F)ccc1Cl [Compound 2069, 1-[2-Chloro-5-(trifluoromethyl)benzylideneamino]guanidine Hydrochloride] | 40 | 3.16 | 8 | 
N=C(N)NN=Cc1ccc(Cl)c(F)c1 [Compound 2030, 1-(4-Chloro-3-fluorobenzylideneamino)guanidine Hydrochloride] | 62 | 2.51 | 6 | 
Cc1ccc(C=NNC(=N)N)c(C)c1 [Compound 2077, 1-[2,4-Dimethylbenzylideneamino]guanidine Hydrochloride] | 61 | 3.16 | 21 | 0.398
COc1ccc(C=NNC(=N)N)cc1Br [Compound 2014, 1-(3-Bromo-4-methoxybenzylideneamino)guanidine Hydrochloride] | 35 | 2 | 8 | 
Cc1cc(C=NNC(=N)N)cc(C)c1O [Compound 2033, 1-(3,5-Dimethyl-4-hydroxybenzylideneamino)guanidine Hydrochloride] | 33 | 10 | 7 | 
N=C(N)NN=Cc1ccc(F)c(Cl)c1 [Compound 2013, 1-(3-Chloro-4-fluorobenzylideneamino)guanidine Hydrochloride] | 34 | 0.794 | 4 | 
N=C(N)NN=Cc1cccc(C(F)(F)F)c1F [Compound 2065, 1-[2-Fluoro-3-(trifluoromethyl)benzylideneamino]guanidine Hydrochloride] | 45 | 3.16 | 9 | 
COc1ccc(C=NNC(=N)N)cc1C(F)(F)F [Compound 2073, 1-[4-Methoxy-3-(trifluoromethyl)benzylideneamino]guanidine Hydrochloride] | 51 | 1.58 | 13 | 
COc1cc(C=NNC(=N)N)cc(OC)c1 [Compound 2007, 1-(3,5-Dimethoxybenzylideneamino)guanidine Hydrochloride] | 29 | 3.16 | 5 | 
CCCCCCc1ccc(C(C)=NNC(=N)N)cc1 [Compound 3023, Hydrochloride] | 22 | 1.26 | 29 | 0.501
CC(C)Oc1ccc(C=NNC(=N)N)cc1 [Compound 2025, 1-(4-Isopropoxybenzylideneamino)guanidine] | 87 | 3.98 | 51 | 3.98
CCOCCOc1ccc(/C=N/NC(=N)N)cc1Cl [Compound 2054, 1-[3-Chloro-4-(2-ethoxy-ethoxy)benzylideneamino])guanidine Acetate] | 96 | 10 | 21 | 
Cc1cc(C=NNC(=N)N)ccc1F [Compound 2012, 1-(4-Fluoro-3-methylbenzylideneamino)guanidine Hydrochloride] | 56 | 1.58 | 9 | 
N=C(N)NN=Cc1ccc2ccccc2c1 [Compound 2075, 1-[Naphthalen-2-yl-methylideneamino]guanidine Hydrochloride] | 65 | 2.51 | 24 | 1.26
